Ends that are not written are not given here.
Legend:
[1] = system: CCR5 tropic HIV-1 variants; assay: Infection of TZM-bl cells by R5 tropic HIV-1 variants, GalScreen; type: cell-based
Protocol: 5000 TZM-bl cells were seeded in 100 μl of DMEM (10% FCS, 100 U/ml of penicillin G and 100 μg/ml of streptomycin sulfate). ALB408-423 was dissolved in PBS (10 mg/ml). One day later, 20 μl serial dilutions of ALB408-423 in PBS were added to cells and cells were subsequently infected with 0.5 ng of p24 antigen HIV-1 in a total volume of 200 μl. HIV-1 molecular clones differing in coreceptor tropism were used and generated as described (Papkalla et al., J. Virol. 76: 8455-9, 2002).
FIG. 3: Chemically synthesized ALB408-423 specifically blocks X4 tropic HIV-1 infection. TZM-bl cells containing indicated dilutions of peptide were infected with HIV-1 variants differing in their coreceptor tropism. 3 days later Gal Screen assay was used to measure infection rates. […] B) Infection rates in the presence of 500 μg/ml ALB408-423 showing that the peptide specifically blocks X4 but not R5 tropic HIV-1 infection. Data shown are mean values±standard deviation derived from triplicate infections relative to PBS containing cells (100% infection).
After 3 days, infection was detected using GalScreen assay (TROPIX) (example 1). […] In contrast, CCR5 tropic HIV-1 variants were not inhibited even in the presence of very high doses of ALB408-423 (500 μg/ml) (FIG. 3B). Due to the specific inhibition of the infection caused by X4-tropic HIV-1 variants, it is to be assumed that ALB408-423 interacts with the chemokine receptor CXCR4.
Virus stocks were first titrated on TZM-bl cells. Then TZM-bl cells containing 100 μM of peptides were infected with infectivity normalized amounts of X4, dualtropic (X4/R5) or R5 tropic HIV-1.
FIG. 10. ALB408-423 and truncated ALB derivatives specifically block X4 tropic HIV-1 infection. TZM-bl cells either containing PBS or 100 μM of indicated peptides were infected with normalized infectivities of X4, dualtropic or R5 tropic HIV-1 clones. Infection rates were measured 2 days post infection using the GalScreen assay. Shown are mean values (% of PBS treated control)±standard deviations derived from triplicate measurements.

[2] = system: Jurkat T cells expressing CXCR4; assay: CXCL12 mediated migration of Jurkat T cells, transwell; type: cell-based; settings: 360 μg/ml, 2 h
Protocol: CXCL12-CXCR4 signaling plays a crucial role in several diseases such as HIV/AIDS, cancer, leukemia and arthritis. CXCL12 expressing organs, tissues or cells can attract CXCR4 expressing tumor cells and allow metastasis. To investigate whether ALB408-423 is able to inhibit CXCL12 mediated tumor cell migration, migration assays were performed using Jurkat T cells expressing CXCR4 as model system (Princen et al., 2004, J.Virol. 78: 12996-13006). Jurkat T cells were suspended at 0.4×106 (200 μl) in medium containing 10% FBS, then the cell suspension (200 μl) was added to the upper compartment of 5 μm pore filter devices (Transwell, 24-well cell culture, Costar). Then, 600?l culture medium with or without CXCL12 (100 ng/ml) was added to the lower compartment allowing attraction of cells from the upper compartment. […] After incubation, plates were removed and 100 μl of cells that migrated to the lower compartment were either counted directly using a counting chamber or analyzed using a proliferation assay (CellTiter-Glo® Reagent, PROMEGA) as recommended by the manufacturer. […]
FIG. 16. […] After 2 hrs incubation at 37° C., the number of migrated cells in the lower compartment was detected by measuring intracellular ATP levels using CellTiter-Glo® Luminescent Cell Viability Assay kit (PROMEGA). […]

[3] = Isoelectric point of the peptide; type: physicochemical
CXCR4 = CXCR4 (Homo sapiens, UniProt P61073); assay: CXCR4 internalization, confocal microscopy of HEK cells expressing EGFP-CXCR4; type: cell-based; set-up: expressed in transfected cells; host or cells: HEK293; settings: 30 min, 37° C.
Chain of CXCR4 (P61073 whole entry): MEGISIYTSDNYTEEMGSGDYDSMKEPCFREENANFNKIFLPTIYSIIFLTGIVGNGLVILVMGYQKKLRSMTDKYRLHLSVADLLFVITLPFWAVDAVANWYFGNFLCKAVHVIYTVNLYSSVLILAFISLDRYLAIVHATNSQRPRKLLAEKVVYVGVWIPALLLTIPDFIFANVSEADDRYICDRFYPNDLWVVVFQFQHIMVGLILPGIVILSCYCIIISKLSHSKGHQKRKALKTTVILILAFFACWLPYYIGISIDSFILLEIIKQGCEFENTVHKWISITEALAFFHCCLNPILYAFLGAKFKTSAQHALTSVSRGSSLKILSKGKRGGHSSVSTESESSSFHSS
Source text: Upon stimulation with the appropriate chemokine, numerous G-protein-coupled receptors get internalized by clathrin-coated pits. As an antagonist of CXCR4 responses, ALB 408-423 may also alter chemokine induced CXCR4 receptor internalization. To analyze the antagonistic properties of ALB408-423 on CXCL12 mediated CXCR4 internalization, EGFP-CXCR4 receptor expressing cells were split and grown for 2 days in 24-well plates on 12-mm glass coverslips coated with rat type I collagen. The cells were then incubated for periods ranging from 0 to 30 min in HEPES-BSA buffer supplemented with protease inhibitors containing either 100 nM CXCL12 or 50 μM of ALB408-423 or 100 nM CXCL12 plus 50 μM of ALB408-423 at 37° C. […] Cells were then analyzed with an inverted microscope (LEICA) and a laser scanning confocal imaging system (LEICA AOBS SP2 MP) using a HCX PL APO 1bd.BL 63X 1.40 OIL UV objective (n° 506192). […] EGFP was excited with the 488 nm laser-line of the Argon laser and detected and amplified by one photomultiplier tube (PMT) in the so-called mCFP Channel from 495 to 550 nm (PMT1 610 High Voltage -HV-, offset 0). […]
FIG. 15. […] Receptor endocytosis was monitored on HEK cells expressing EGFP-CXCR4 and analyzed by confocal microscopy immediately (0 min, upper panel) after addition of CXCL12, ALB408-423 or both compounds, or 30 min later (lower panel). […]

LVRYTKKVPQVSTPTL [ALB408-423, LVRYTKKVPQVSTPTL]
effect on R5 tropic HIV-1 infection ([1]; 100 μM peptide): no effect | inhibition of CCR5 tropic HIV-1 variants ([1]; 500 μg/ml): not inhibited | block of CXCL12 induced cell migration [2]: almost completely | isoelectric point (pI) [3]: 10.3 | effect on CXCL12 mediated CXCR4 internalization (CXCR4; 100 nM CXCL12 plus 50 μM peptide): blocked CXCL12 mediated CXCR4 internalization | CXCR4 internalization by the peptide alone (CXCR4; 50 μM): did not induce internalization of the receptor
